The results in this text go back to ChEMBL document CHEMBL1142482, “Synthesis of novel benzamidine- and guanidine-derived polyazamacrocycles: Selective anti-protozoal activity for human African trypanosomiasis” (Bioorg Med Chem Lett, 2008).

One data set deals with Plasmodium falciparum. The data set is described as follows: Antiplasmodial activity against Plasmodium falciparum. It counts as functional, organism-based.
The subject of another data set is Trypanosoma brucei. The data set is described as follows: Antitrypanosomal activity against bloodstream Trypanosoma brucei P2 by Alamar blue assay. It counts as functional, organism-based.
The nature of data set [1]: Lipophilicity, log P of the compound. Conditions: octanol/water. It counts as physicochemical.
The nature of data set [2]: Cytotoxicity against HEK cells. To be noted: Homo sapiens, HEK293. It counts as cell-based.

A value given as a limit tells only on which side of the number the result lay.

As usually defined, the EC50 is the concentration needed to bring the measured effect to its halfway point. Low readings indicate a more potent agent, high ones a less potent agent. A word on the logP: it is the decadic logarithm of the partition coefficient of the neutral form, usually between octanol and water. Low readings indicate lower lipophilicity, high ones higher lipophilicity. Regarding `N#Cc1ccc(C2CNCCNCCNCCN2)cc1` (stereo unspecified), the EC50 in the data set with Plasmodium falciparum is above 100 µM; in the data set with Trypanosoma brucei, above 200 µM; in data set [2], above 200 µM. Moreover, the lipophilicity (logP) in data set [1] is -0.65.

`c1ccc2c(c1)ccc1ccc(C3CNCCNCCNCCN3)cc12` (stereo unspecified): the EC50 with Plasmodium falciparum was below 1.5 µM; in the data set on Trypanosoma brucei it was 1.3 µM; in data set [2], 24.9 µM.

Take `O=C(Nc1ccc([N+](=O)[O-])cc1)OCCN1CCN(CCOC(=O)Nc2ccc([N+](=O)[O-])cc2)CCN(CCOC(=O)Nc2ccc([N+](=O)[O-])cc2)CCN(CCOC(=O)Nc2ccc([N+](=O)[O-])cc2)CC1`: the 50% effective concentration (EC50) was determined as 0.5 µM with Trypanosoma brucei and 1.3 µM in data set [2].

In the case of `N=C(N)NCc1ccc(C2CNCCNCCNCCN2)cc1` (stereo unspecified), the concentration giving a half-maximal response (EC50) in the data set on Plasmodium falciparum was above 100 µM; with Trypanosoma brucei it was 41.2 µM; in data set [2] it was above 200 µM. In data set [1], the lipophilicity (logP) was -1.64.

Turning to `N=C(N)c1ccc(C2CNCCNCCNCCN2)cc1` (stereo unspecified), the EC50 is above 100 µM in the data set with Plasmodium falciparum, 22 µM in the data set with Trypanosoma brucei and above 200 µM in data set [2]. The logP in data set [1] was -1.44.

As for `NCc1ccc(C2CNCCNCCNCCN2)cc1` (stereo unspecified), the EC50 was above 100 µM in the data set with Plasmodium falciparum, above 200 µM in the data set on Trypanosoma brucei and above 200 µM in data set [2]. The compound also had a lipophilicity (logP) in data set [1] of -1.12.
